Results published in US8889592B2, “Insecticidal and/or herbicidal composition having improved activity based on spiroheterocyclically substituted tetramic acid derivatives” (Bayer CropScience AG, priority 2010, dated 2014).

How the values were obtained:
[1] = Penetration through enzymatically isolated apple leaf cuticles (20° C., 60% rh); assay type: in vitro ADME, apple trees of the cultivar Golden Delicious; conditions: 0.1 g/l
Procedure: (§1) In this test, the penetration of active compounds through enzymatically isolated cuticles of apple tree leaves is measured.
(§2) Use is made of leaves which, when fully developed, are cut from apple trees of the cultivar Golden Delicious. The cuticles are isolated by • initially filling leaf discs punched out and stained with dye on the underside by vacuum infiltration with a pectinase solution (0.2 to 2% strength) buffered to a pH between 3 and 4, • then adding sodium azide and • allowing the leaf discs treated in this manner to stand until the original leaf structure has dissolved and the non-cellular cuticles have detached.
(§3) Only the cuticles, free from hairs and stoma, of the upper sides of the leaves are then used. They are washed repeatedly alternating with water and a buffer solution of pH 7. The clean cuticles obtained are then mounted on Teflon plates and smoothed and dried with a gentle stream of air.
(§4) In the next step, the cuticle membranes obtained in this manner are placed into stainless steel diffusion cells (=transport chambers) for membrane transport studies. To this end, the cuticles are placed with a pincette into the centre of the edges, coated with silicone fat, of the diffusion cells and closed with a ring, which is also treated with fat. The arrangement is chosen such that the morphological outside of the cuticles is facing outwards, i.e. exposed to air, whereas the original inside is facing the interior of the diffusion cell.
(§5) The diffusion cells are filled with a 30% strength ethylene glycol/water solution. To determine the penetration, in each case 10 μl of the spray liquor of the composition below are applied to the outside of the cuticles. The spray liquor is prepared using local tap water of medium hardness.
(§6) After the application of the spray liquors, the water is allowed to evaporate and the chambers are inverted and placed into thermostatic tubs in which temperature and atmospheric humidity over the cuticles can be adjusted using a gentle stream of air onto the cuticles with the spray coating (20° C., 60% rh). At regular intervals, an autosampler takes aliquots and the active compound content is determined by HPLC.
(§7) The stated numbers are average values of 8 to 10 measurements. It is clearly evident that even the ammonium salts on their own improve the penetration markedly, and that, together with RME, a superadditive (synergistic) effect is present.

[2] = test system: Myzus persicae; assay: Myzus persicae test (activity boost through ammonium salts and penetrants); assay type: in vivo, green peach aphid (Myzus persicae); conditions: for Kill (%) after 6 d +AS + RME per 1000 ppm: 1000 ppm each; for Kill (%) after 6 d: no additive, bell pepper plants, spray
Procedure: (§8) Solvent: 7 parts by weight of dimethylformamide
(§9) Emulsifier: 2 parts by weight of alkylaryl polyglycol ether
(§10) To produce a suitable preparation of active compound, 1 part by weight of active compound is mixed with the stated amounts of solvent and emulsifier, and the concentrate is diluted with water to the desired concentration. For application with ammonium salts or phosphonium salts and penetration promoters (rapeseed oil methyl ester 500 EW) these are in each case added in a concentration of 1000 ppm to the spray liquor.
Bell pepper plants (Capsicum annuum) heavily infested by the green peach aphid (Myzus persicae) are sprayed to runoff point with the preparation of active compound at the desired concentration.
After the desired period of time, the kill in % is determined. 100% means that all animals have been killed; 0% means that none of the animals have been killed.

[3] = test system: ALOMY (Peldon); assay: Herbicidal post-emergence action; assay type: in vivo, Blackgrass (resistant); conditions: 6.25 g of a.i./ha, 28 days after application
Procedure: (§11) Seeds of monocotyledonous weed plants are placed in sandy loam in wood fibre pots, covered with soil and cultivated in a greenhouse under good growth conditions. 3-4 weeks after sowing, the test plants are treated at the two- to three-leaf stage. The test compound, formulated as a wettable powder (WP), is then, at various dosages with a water application rate of 300 l/ha (converted), with the stated adjuvants added, sprayed onto the green parts of the plants. After the test plants have been kept in the greenhouse under optimum growth conditions for about 4 weeks, the effect of the preparations is rated visually in comparison to untreated controls (herbicidal effect in percent: 100% effect=the plants have died, 0% effect=like control plants).

[4] = test system: ALOMY; assay: Herbicidal post-emergence action; assay type: in vivo, Blackgrass (not resistant); conditions: 6.25 g of a.i./ha, 28 days after application
Procedure: as §11

[5] = Penetration through enzymatically isolated apple leaf cuticles (35° C., 60% rh); assay type: in vitro ADME, apple trees of the cultivar Golden Delicious; conditions: 0.2 g/l; for Penetration after 48 h/% EC: 500 ppm in DMF/emulsifier W 7:1 (w/w), no additive; for Penetration after 48 h/% EC + AS (0.7 g/l): with ammonium sulphate; for Penetration after 48 h/% EC + RME (1 g/l): with rapeseed oil methyl ester; for Penetration after 48 h/% EC + RME (1 g/l) + AS (0.7 g/l): with rapeseed oil methyl ester and ammonium sulphate
Procedure: as §1, §2, §3, §4, §5
as §6, with “(35°” for “(20°”
as §7

[6] = test system: LOLRI; assay: Herbicidal post-emergence action; assay type: in vivo, Annual Ryegrass (resistant); conditions: 6.25 g of a.i./ha, 28 days after application
Procedure: as §11

[7] = test system: LOLMU; assay: Herbicidal post-emergence action; assay type: in vivo, Italian Ryegrass; conditions: 6.25 g of a.i./ha, 28 days after application
Procedure: as §11

[8] = test system: Aphis gossypii; assay: Aphis gossypii test; assay type: in vivo, cotton aphid (Aphis gossypii); conditions: for Kill (%) after 6 d +AS + RME per 1000 ppm: 1000 ppm each; for Kill (%) after 6 d: no additive, cotton plants, spray
Procedure: as §8, §9
as §10, with “diluted with emulsifier-containing water to” for “diluted with water to”, “1000 ppm of a.i. to the” for “1000 ppm to the”
Cotton plants (Gossypium hirsutum) which are heavily infested by the cotton aphid (Aphis gossypii) are sprayed to runoff point with the preparation of active compound at the desired concentration.
After the desired period of time, the kill in % is determined. 100% means that all aphids have been killed; 0% means that none of the aphids have been killed.

[9] = 20 ppm active compound + ammonium sulphate 1000 ppm
[10] = 20 ppm active compound + ammonium sulphate and rapeseed oil methyl ester
[11] = 20 ppm active compound + rapeseed oil methyl ester 1000 ppm
[12] = with ammonium sulphate (2 kg/ha)
[13] = with ammonium sulphate (2 kg/ha) and Genapol LRO (1 l/ha)
[14] = 4 ppm active compound + ammonium sulphate 1000 ppm
[15] = 4 ppm active compound + ammonium sulphate and rapeseed oil methyl ester
[16] = 4 ppm active compound + rapeseed oil methyl ester 1000 ppm

Question: Which results are given for `CON1CCC2(CC1)NC(=O)C(c1cc(C)ccc1C)=C2O` [Example I-a-1]?
Answer: Penetration after 24 h/% EC ([1]; 500 ppm in DMF/emulsifier W 7:1 (w/w), no additive): 0.7%; Penetration after 24 h/% EC + AS (1 g/D) ([1]; with ammonium sulphate): 17%; Penetration after 24 h/% EC + DAHP (1 g/l) ([1]; with diammonium hydrogenphosphate): 15%; Penetration after 24 h/% EC + RME (1 g/l) ([1]; with rapeseed oil methyl ester): 1.7%; Penetration after 24 h/% EC + RME (1 g/l) + AS (1 g/l) ([1]; with rapeseed oil methyl ester and ammonium sulphate): 21%; Penetration after 24 h/% EC + RME (1 g/l) + DAHP (1 g/l) ([1]; with rapeseed oil methyl ester and diammonium hydrogenphosphate): 28%; Kill (%) after 6 d +AS 1000 ppm [2, 9]: 0%; Kill (%) after 6 d +AS + RME per 1000 ppm [2, 10]: 60%; Kill (%) after 6 d +RME 1000 ppm [2, 11]: 0%; Kill (%) after 6 d ([2]; 20 ppm active compound): 0%

Question: With `CCc1cc(C)cc(CC)c1C1=C(O)C2(CCN(OC)CC2)NC1=O` [Example I-a-3] as the molecule, how does the “herbicidal effect, a.i. + GE” value ([3]; with Genapol LRO (1 l/ha)) read?
Answer: Its value is 20%.

Question: What about the “herbicidal effect, a.i. + AS” value [3, 12] of the same molecule?
Answer: The value was 0%.

Question: What about the “herbicidal effect, a.i. + AS + GE” value [3, 13] of the same molecule?
Answer: The value was 60%.

Question: What about the “herbicidal effect, a.i.” value ([3]; post-emergence, no adjuvant) of the same molecule?
Answer: Its value is 0%.

Question: And the “herbicidal effect, a.i. + GE” value ([4]; with Genapol LRO (1 l/ha))?
Answer: Its value is 70%.

Question: And the “herbicidal effect, a.i. + AS” value [4, 12]?
Answer: The value was 0%.

Question: What about the “herbicidal effect, a.i. + AS + GE” value [4, 13] of the same molecule?
Answer: Its value is 90%.

Question: What about the “herbicidal effect, a.i.” value ([4]; post-emergence, no adjuvant) of the same molecule?
Answer: The value was 0%.

Question: And the “Penetration after 48 h/% EC” value [5]?
Answer: Its value is 1%.

Question: What about the “Penetration after 48 h/% EC + AS (0.7 g/l)” value [5] of the same molecule?
Answer: Its value is 9%.

Question: What about the “Penetration after 48 h/% EC + RME (1 g/l)” value [5] of the same molecule?
Answer: The value was 9%.

Question: And the “Penetration after 48 h/% EC + RME (1 g/l) + AS (0.7 g/l)” value [5]?
Answer: The value was 33%.

Question: What about the “herbicidal effect, a.i. + GE” value ([6]; with Genapol LRO (1 l/ha)) of the same molecule?
Answer: Its value is 20%.

Question: What about the “herbicidal effect, a.i. + AS” value [6, 12] of the same molecule?
Answer: Its value is 0%.

Question: What about the “herbicidal effect, a.i. + AS + GE” value [6, 13] of the same molecule?
Answer: The value was 60%.

Question: And the “herbicidal effect, a.i.” value ([6]; post-emergence, no adjuvant)?
Answer: Its value is 0%.

Question: And the “herbicidal effect, a.i. + GE” value ([7]; with Genapol LRO (1 l/ha))?
Answer: The value was 50%.

Question: What about the “herbicidal effect, a.i. + AS” value [7, 12] of the same molecule?
Answer: The value was 40%.

Question: And the “herbicidal effect, a.i. + AS + GE” value [7, 13]?
Answer: The value was 80%.

Question: What about the “herbicidal effect, a.i.” value ([7]; post-emergence, no adjuvant) of the same molecule?
Answer: Its value is 20%.

Question: With `CCON1CCC2(CC1)NC(=O)C(c1c(C)cc(C)cc1C)=C2O` [Example I-a-4] as the molecule, how does the “Penetration after 48 h/% EC” value [5] read?
Answer: Its value is 0%.

Question: What about the “Penetration after 48 h/% EC + AS (0.7 g/l)” value [5] of the same molecule?
Answer: Its value is 3%.

Question: And the “Penetration after 48 h/% EC + RME (1 g/l)” value [5]?
Answer: The value was 6%.

Question: And the “Penetration after 48 h/% EC + RME (1 g/l) + AS (0.7 g/l)” value [5]?
Answer: The value was 17%.

Question: Which “Kill (%) after 6 d +AS 1000 ppm” value [8, 14] does the source give for `CON1CCC2(CC1)NC(=O)C(c1c(C)cc(C)cc1C)=C2O` [I-a-2] here?
Answer: The value was 0%.

Question: And the “Kill (%) after 6 d +AS + RME per 1000 ppm” value (from here on “Kill (%) … per 1000 ppm”) [8, 15]?
Answer: The value was 90%.

Question: What about the “Kill (%) after 6 d +RME 1000 ppm” value [8, 16] of the same molecule?
Answer: Its value is 40%.

Question: What about the “Kill (%) after 6 d” value ([8]; 4 ppm active compound) of the same molecule?
Answer: The value was 0%.

Question: What about the “Kill (%) after 6 d +AS 1000 ppm” value [8, 9] of the same molecule?
Answer: The value was 85%.

Question: And the “Kill (%) … per 1000 ppm” value [8, 10]?
Answer: Its value is 95%.

Question: And the “Kill (%) after 6 d +RME 1000 ppm” value [8, 11]?
Answer: Its value is 95%.

Question: What about the “Kill (%) after 6 d” value ([8]; 20 ppm active compound) of the same molecule?
Answer: Its value is 0%.

Question: And the “Kill (%) after 6 d +AS 1000 ppm” value ([2]; 0.8 ppm active compound + ammonium sulphate 1000 ppm)?
Answer: The value was 0%.

Question: What about the “Kill (%) … per 1000 ppm” value ([2]; 0.8 ppm active compound + ammonium sulphate and rapeseed oil methyl ester) of the same molecule?
Answer: The value was 90%.

Question: And the “Kill (%) after 6 d +RME 1000 ppm” value ([2]; 0.8 ppm active compound + rapeseed oil methyl ester 1000 ppm)?
Answer: The value was 0%.

Question: And the “Kill (%) after 6 d” value ([2]; 0.8 ppm active compound)?
Answer: The value was 0%.

Question: What about the “Kill (%) after 6 d +AS 1000 ppm” value [2, 14] of the same molecule?
Answer: Its value is 55%.

Question: What about the “Kill (%) … per 1000 ppm” value [2, 15] of the same molecule?
Answer: The value was 95%.

Question: What about the “Kill (%) after 6 d +RME 1000 ppm” value [2, 16] of the same molecule?
Answer: The value was 60%.

Question: And the “Kill (%) after 6 d” value ([2]; 4 ppm active compound)?
Answer: The value was 0%.

Question: Which “Kill (%) after 6 d +AS 1000 ppm” value [8, 9] does the source give for `CCOC(=O)OC1=C(c2cc(C)ccc2C)C(=O)NC12CCN(OC)CC2` [I-c-1] here?
Answer: The value was 0%.

Question: What about the “Kill (%) … per 1000 ppm” value [8, 10] of the same molecule?
Answer: Its value is 90%.

Question: What about the “Kill (%) after 6 d +RME 1000 ppm” value [8, 11] of the same molecule?
Answer: The value was 80%.

Question: And the “Kill (%) after 6 d” value ([8]; 20 ppm active compound)?
Answer: The value was 0%.

Question: And the “Kill (%) after 6 d +AS 1000 ppm” value [2, 9]?
Answer: Its value is 0%.

Question: What about the “Kill (%) … per 1000 ppm” value [2, 10] of the same molecule?
Answer: Its value is 98%.

Question: And the “Kill (%) after 6 d +RME 1000 ppm” value [2, 11]?
Answer: The value was 20%.

Question: What about the “Kill (%) after 6 d” value ([2]; 20 ppm active compound) of the same molecule?
Answer: The value was 0%.
